Assays:
[1] = AUC (0 to 6 hrs) in rat at 10 mg/kg, po; type: ADME, organism-based; design: time < 6 hr, dose 10 mg/kg, route oral; conditions: plasma
[2] = target: T1, Cannabinoid receptor 2 (Homo sapiens, UniProt P34972); assay: Agonist activity at human cloned CB2 receptor expressed in CHO cells assessed as inhibition of forskolin-induced cAMP accumulation relative to control; type: functional, cell-based
[3] = target: T1, Cannabinoid receptor 2; assay: Agonist activity at human cloned CB2 receptor expressed in CHO cells assessed as inhibition of forskolin-induced cAMP accumulation; type: functional, cell-based
[4] = target: T2, Cannabinoid receptor 1 (Homo sapiens, UniProt P21554); assay: Agonist activity at human cloned CB1 receptor expressed in CHO cells assessed as inhibition of forskolin-induced cAMP accumulation; type: functional, cell-based
T2 sequence (P21554 whole entry): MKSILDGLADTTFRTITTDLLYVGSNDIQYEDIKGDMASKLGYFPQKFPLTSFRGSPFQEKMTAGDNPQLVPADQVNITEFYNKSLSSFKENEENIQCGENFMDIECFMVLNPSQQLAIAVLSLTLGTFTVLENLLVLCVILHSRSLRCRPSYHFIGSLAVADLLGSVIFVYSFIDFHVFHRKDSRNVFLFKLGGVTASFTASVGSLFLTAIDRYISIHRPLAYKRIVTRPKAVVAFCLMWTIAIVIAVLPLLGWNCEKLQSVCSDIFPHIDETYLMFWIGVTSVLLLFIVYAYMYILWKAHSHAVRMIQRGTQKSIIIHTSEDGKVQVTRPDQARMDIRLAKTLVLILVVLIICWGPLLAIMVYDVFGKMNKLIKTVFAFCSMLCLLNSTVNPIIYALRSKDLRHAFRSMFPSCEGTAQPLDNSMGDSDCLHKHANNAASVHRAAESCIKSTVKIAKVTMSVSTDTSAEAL

[5] = target: T2, Cannabinoid receptor 1; assay: Agonist activity at human cloned CB1 receptor expressed in CHO cells assessed as inhibition of forskolin-induced cAMP accumulation relative to control; type: functional, cell-based
[6] = target: T2, Cannabinoid receptor 1; assay: Displacement of [3H]-CP55940 from human cloned CB1 receptor expressed in CHO cells; type: cell-based
[7] = target: T1, Cannabinoid receptor 2; assay: Displacement of [3H]-CP55940 from human cloned CB2 receptor expressed in CHO cells; type: cell-based

T1 sequence (P34972 whole entry): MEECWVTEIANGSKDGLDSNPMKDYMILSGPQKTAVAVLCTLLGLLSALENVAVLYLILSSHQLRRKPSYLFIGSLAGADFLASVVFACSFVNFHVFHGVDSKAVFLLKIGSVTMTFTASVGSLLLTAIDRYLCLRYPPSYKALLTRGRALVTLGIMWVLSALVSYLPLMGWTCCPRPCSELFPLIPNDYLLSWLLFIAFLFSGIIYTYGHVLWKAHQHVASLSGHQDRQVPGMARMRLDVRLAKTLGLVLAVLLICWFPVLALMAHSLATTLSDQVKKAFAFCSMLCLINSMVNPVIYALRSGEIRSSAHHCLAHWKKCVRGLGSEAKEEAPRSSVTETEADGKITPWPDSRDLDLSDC

Structure (SMILES) | AUC(0-t) at 6 h [1] | Emax [2] | EC50 [3] | EC50 [4] | Emax [5] | Ki [6] | Ki [7]
FC1CCCN(Cc2cccc(-c3nc(-c4cccc(C(F)(F)F)c4)c[nH]3)c2)C1 (centres undefined) | 0.682 µM·h | 98% | 16 nM | – | – | – | –
Brc1cccc(-c2c[nH]c(-c3cccc(CN4CCOCC4)c3)n2)c1 | 0.158 µM·h | 112% | 5 nM | 665 nM | – | – | –
FC(F)(F)c1cccc(-c2cn(CC3CC3)c(-c3cccc(CN4CCOCC4)c3)n2)c1 | – | 68% | 412 nM | > 1000 nM | – | – | –
CC1CN(Cc2cccc(-c3nc(-c4cccc(Cl)c4)c[nH]3)c2)CCO1 (centres undefined) | – | 102% | 14 nM | 3250 nM | – | – | –
Clc1cccc(-c2c[nH]c(-c3cccc(CN4CCCCC4)c3)n2)c1Cl | – | 115% | 8 nM | 12600 nM | – | – | –
Clc1cccc(-c2c[nH]c(-c3cccc(CN4CCCCC4)c3)n2)c1 | – | 114% | 10 nM | 1050 nM | – | – | –
CC(C)n1cc(-c2cccc(C(F)(F)F)c2)nc1-c1cccc(CN2CCOCC2)c1 | – | – | 218 nM | > 1000 nM | – | – | –
O[C@H]1CCCN(Cc2cccc(-c3nc(-c4cccc(C(F)(F)F)c4)c[nH]3)c2)C1 | – | 92% | 113 nM | > 10000 nM | – | – | –
FC1CCN(Cc2cccc(-c3nc(-c4cccc(C(F)(F)F)c4)c[nH]3)c2)CC1 | 0.524 µM·h | 107% | 9 nM | 2290 nM | – | – | –
FC(F)(F)c1cccc(-c2c[nH]c(-c3cccc(CN4CCSCC4)c3)n2)c1 | 0.042 µM·h | 100% | 6 nM | > 1000 nM | – | – | –
CC1CN(Cc2cccc(-c3nc(-c4cccc(C(F)(F)F)c4)c[nH]3)c2)CCO1 (centres undefined) | 1.99 µM·h | 97% | 25 nM | > 10000 nM | – | – | –
COc1ccc(F)c(-c2c[nH]c(-c3cccc(CN4CCC(F)(F)CC4)c3)n2)c1 | – | 107% | 5 nM | 25 nM | – | – | –
COc1ccc(F)c(-c2c[nH]c(-c3cccc(CN4CCOCC4)c3)n2)c1 | – | 109% | 4 nM | 140 nM | – | – | –
O=S(=O)(c1ccccc1)n1cc(-c2cccc(C(F)(F)F)c2)nc1-c1cccc(CN2CCOCC2)c1 | – | – | > 1000 nM | – | – | – | –
CC1CCN(Cc2cccc(-c3nc(-c4cccc(Cl)c4Cl)c[nH]3)c2)CC1 | – | 107% | 25 nM | > 10000 nM | – | – | –
FC1CCN(Cc2cccc(-c3nc(-c4ccc(Cl)cc4Cl)c[nH]3)c2)CC1 | – | 107% | 10 nM | 2450 nM | – | – | –
FC(F)(F)c1cccc(-c2cn(Cc3ccccc3)c(-c3cccc(CN4CCOCC4)c3)n2)c1 | – | – | > 1000 nM | > 1000 nM | – | – | –
C[C@H]1COCCN1Cc1cccc(-c2nc(-c3cccc(C(F)(F)F)c3)c[nH]2)c1 | – | 78% | 169 nM | – | – | – | –
CC1CCCN(Cc2cccc(-c3nc(-c4cccc(C(F)(F)F)c4)c[nH]3)c2)C1 (centres undefined) | 1.41 µM·h | 87% | 70 nM | – | – | – | –

Structure (SMILES) | AUC(0-t) at 6 h [1] | Emax [2] | EC50 [3] | EC50 [4] | Emax [5] | Ki [6] | Ki [7]
FC1CCN(Cc2cccc(-c3nc(-c4cccc(Cl)c4)c[nH]3)c2)CC1 | – | 107% | 8 nM | 130 nM | – | – | –
COc1ccc(F)c(-c2c[nH]c(-c3cccc(CN4CCCCC4)c3)n2)c1 | – | 108% | 4 nM | 320 nM | – | – | –
FC1CCN(Cc2ccccc2-c2nc(-c3cccc(C(F)(F)F)c3)c[nH]2)CC1 | – | 108% | 130 nM | > 10000 nM | – | – | –
Clc1ccc(-c2c[nH]c(-c3cccc(CN4CCCCC4)c3)n2)c(Cl)c1 | – | 104% | 24 nM | 1800 nM | – | – | –
COc1ccc(-c2c[nH]c(-c3cccc(CN4CCC(F)(F)CC4)c3)n2)c(F)c1 | – | 107% | 3 nM | 39 nM | – | – | –
OCC1CCCN(Cc2cccc(-c3nc(-c4cccc(C(F)(F)F)c4)c[nH]3)c2)C1 (centres undefined) | – | 91% | 61 nM | > 1000 nM | – | – | –
COc1ccc(F)c(-c2c[nH]c(-c3cccc(CN4CCC(F)CC4)c3)n2)c1 | – | 106% | 5 nM | 87 nM | – | – | –
CC(=O)n1cc(-c2cccc(C(F)(F)F)c2)nc1-c1cccc(CN2CCOCC2)c1 | – | 102% | 9 nM | > 1000 nM | – | – | –
CCOc1ccc(F)c(-c2c[nH]c(-c3cccc(CN4CCCCC4)c3)n2)c1 | – | 102% | 87 nM | 8500 nM | – | – | –
FC1CCN(Cc2cccc(-c3nc(-c4cccc(Cl)c4Cl)c[nH]3)c2)CC1 | – | 119% | 5 nM | 1290 nM | – | – | –
FC(F)(F)c1cccc(-c2c[nH]c(-c3cccc(CN4CCOCC4)c3)n2)c1 | 0.866 µM·h | 80% | 8 nM | > 1000 nM | 67% | 1000 nM | 42 nM
FC1(F)CCCN(Cc2cccc(-c3nc(-c4cccc(C(F)(F)F)c4)c[nH]3)c2)C1 | 0.851 µM·h | 98% | 25 nM | – | – | – | –
O=C(c1ccccc1)n1cc(-c2cccc(C(F)(F)F)c2)nc1-c1cccc(CN2CCOCC2)c1 | – | 101% | 11 nM | – | – | – | –
FC(F)(F)c1cccc(-c2c[nH]c(-c3cccc(CN4CCCCC4)c3)n2)c1 | 0.537 µM·h | 104% | 14 nM | > 10000 nM | – | – | –
FC(F)(F)c1cccc(-c2cn(-c3ccccc3)c(-c3cccc(CN4CCOCC4)c3)n2)c1 | – | – | > 1000 nM | – | – | – | –
CC1CCN(Cc2cccc(-c3nc(-c4cccc(C(F)(F)F)c4)c[nH]3)c2)CC1 | 0.881 µM·h | 97% | 21 nM | > 10000 nM | – | – | –
FC1(F)CCN(Cc2cccc(-c3nc(-c4cccc(C(F)(F)F)c4)c[nH]3)c2)CC1 | 1.11 µM·h | 100% | 5 nM | 2550 nM | – | – | –
CC1CN(Cc2ccccc2-c2nc(-c3cccc(C(F)(F)F)c3)c[nH]2)CCO1 (centres undefined) | – | 102% | 510 nM | > 10000 nM | – | – | –

From ChEMBL document CHEMBL1641542, “Structure-activity relationships of 2,4-diphenyl-1H-imidazole analogs as CB2 receptor agonists for the treatment of chronic pain” (Bioorg Med Chem Lett, 2011)
